Results published in patent publication US20040249122A1, “Cationic, amphipathic beta-sheet peptides and uses thereof” (priority 2003, published 2004).
Where a SMILES comes first, the peptide text is derived from it.

Columns and labels:
microorganisms = settings: literature (52, 54); E. coli, S. aureus, P. aeruginosa for FKVKFKVKVK; cited from earlier work
[1] = Peptide-induced leakage from calcein-loaded LUV
[2] = system: Candida albicans (ATCC 14053); settings: ATCC 14053
Protocol: (§1) Antimicrobial and Hemolytic Assays. Antimicrobial susceptibility testing against Staphylococcus aureus (ATCC 29213), Escherichia coli (ATCC 25922), and Pseudomonas aeruginosa (ATCC 27853) was performed using a modification of the National Committee for Clinical Laboratory Standards microdilution broth assay (22). Mueller-Hinton broth (BBL) was used for diluting the peptide stock solution and for diluting the bacterial inoculum. The inoculum was prepared from mid-logarithmic phase cultures. Microtiter plate wells received aliquots-of 100 μL each of the inoculum and peptide dilution. The final concentration of peptide solution ranged-from 0.25 to 256 μg/mL in two-fold dilutions. The final concentration of bacteria in the wells was 5×10^5 CFU/mL. Peptides were tested in duplicate. In addition to the test peptide, three standard peptides and a non-treated growth control were included to validate the assay. The microtiter plates were incubated overnight at 37° C. and the absorbance was measured at 600 nm. […] After incubation at 37° C. for 30 min, the suspension was centrifuged at 10,000×g for 10 min and the absorbance at 400 nm was measured. Complete hemolysis was determined by adding 0.2% Triton X-100 in place of the peptide.
Antimicrobial susceptibility testing against Escherichia coli (ATCC 25922), Staphylococcus aureus (ATCC 29213), Pseudomonas aeruginosa (ATCC 27853), and Candida albicans (ATCC 14053) is performed using a modification of the National Committee for Clinical Laboratory Standards microdilution broth assay. Mueller-Hinton broth (BBL) is used for diluting the peptide stock solution and for diluting the bacterial inoculum. The inoculum is prepared from midlogarithmic phase cultures at an approximate concentration of 10^6 CFU/mL. Microtiter plate wells receive aliquots of 0.1 mL each of the inoculum and peptide dilution. The final concentration of the peptide solution ranges from 0.25 to 256 μg/mL in 2-fold dilutions. The microtiter plates are incubated overnight at 37° C.

human erythrocytes = test: Hemolysis of human erythrocytes; type: cell-based; settings: red cells of human, 500
Protocol: as §1, with “Microtiter plate wells received aliquots-of 100 μL each of the inoculum and peptide dilution.” left out, “measured.” for “measured. Complete hemolysis was determined by adding 0.2% Triton X-100 in place of the peptide.”

[3] = system: Staphylococcus aureus (ATCC 29213); type: cell-based; settings: ATCC 29213
[4] = system: Escherichia coli (ATCC 25922); type: cell-based; settings: ATCC 25922
[5] = system: Pseudomonas aeruginosa (ATCC 27853); type: cell-based; settings: ATCC 27853

Compound	antimicrobial or hemolytic activity as reported in the literature (microorganisms)	calcein leakage from LUV (in words) ([1]; 4:1 POPE/POPG LUV)	calcein leakage from LUV (in words) ([1]; POPC (PC) LUV)	calcein leakage from LUV (in words) ([1]; POPC/POPG LUV, all ratios (1:1 to 4:1))	calcein release from LUV (in words) ([1]; POPG LUV)	Minimum Inhibitory Concentration, C. albicans [2]	% Hemolysis (500 μg/mL) (human erythrocytes)	Minimum Inhibitory Concentration, S. aureus [3]	Minimum Inhibitory Concentration, E. coli [4]	Minimum Inhibitory Concentration, P. aeruginosa [5]
FKVKFKVKVK (artificial mutant)	able to inhibit the growth	–	–	–	–	–	–	–	–	–
CC[C@H](C)[C@H](NC(=O)[C@H](C)NC(=O)CNC(=O)[C@H](C)NC(=O)[C@H](CCCCN)NC(=O)[C@H](CO)NC(=O)[C@H](C)NC(=O)[C@H](CCSC)NC(=O)CN)C(=O)N[C@@H](C)C(=O)NCC(=O)N[C@@H](CCCCN)C(=O)N[C@H](C(=O)N[C@@H](C)C(=O)N[C@@H](CCCCN)C(=O)N[C@H](C(=O)N[C@@H](C)C(=O)N[C@@H](CC(C)C)C(=O)N[C@@H](CCCCN)C(=O)N[C@@H](C)C(=O)N[C@@H](CC(C)C)C(N)=O)C(C)C)[C@@H](C)CC [PGLa, GMASKAGAIAGKIAKVALKAL -NH2, reference compound] (H-GMASKAGAIAGKIAKVALKAL-NH2; N-terminus assumed)	–	quite low	not very effective	most potent	most potent	128 µg/mL	1%	64 µg/mL	32 µg/mL	128 µg/mL
